From US5049372A, “Anticancer activities in a host by increasing blood and plasma adenosine 5'-triphosphate (ATP) levels” (priority 1988, dated 1991)
“Also recorded” adds a separate entry of the source.

Tests used:
RBC ATP pools [1] = experiment: Expansion of RBC ATP pools and blood plasma ATP levels after i.p. injection (Table 4); format: in vivo, mouse; conditions: for Plasma ATP levels / RBC ATP pools / Plasma [^3 ]ATP levels immediately after [^3 H]adenosine incorporation into whole blood: 5 hours after i.p. injection of 2 ml of 35 mM, CB6F1; for Plasma ATP levels / RBC ATP pools: bioluminometry, citrate-dextrose; for Plasma [^3 ]ATP levels immediately after [^3 H]adenosine incorporation into whole blood: radioactivity corrected by RBC specific radioactivity; for Duration of expansion of RBC ATP pools: after complete adsorption across the peritoneal membrane; for Time at which expansion of RBC ATP pools could be detected: after i.p. injection; for Increase in plasma (extracellular) ATP levels (in words): i.p. administration; for Expansion of RBC ATP pools (in words): i.p. injection, host animals
Procedure: (§1) The mice are anesthetized with ether during the procedure. Plasma or Hanks' (Balanced Salt Solution) BSS media from incubated isolated RBCs (Red Blood Cells) are prepared by centrifugation of whole blood or RBCs in a Beckman microfuge (30 seconds at 8000 xg) and samples of 100 μl are added to 1 ml of ice-cold 7% trichloroacetic acid. Red blood cells are prepared by centrifugation of whole blood (1500 xg for 5 minutes at 4° C.) and removal of plasma and the buffy coat is followed by a wash of the pelleted RBCs (from 250 μl of whole blood) in 5 ml of ice-cold Hanks' BSS. After centrifugations, the RBCs pellet is resuspended in Hanks' BSS to yield a total volume with the original hematocrit (percent of RBCs volume in the whole blood). Aliquots of 20 μl of RBCs suspensions or whole blood are added to 1 ml of ice-cold 7% trichloroacetic acid. Extraction of acid-soluble nucleotides and determinations of ATP levels by luminometry followed procedures discussed hereinabove. Levels of [^3 H]ATP in whole blood, RBCs, plasma, or RBCs incubation media (Hanks' BSS) are determined after incorporation of 250 μCi of [^3 H]adenosine of specific radioactivity of 30 Ci/mmol (1 Ci=3.7×10^10 becquerels) into whole blood or RBC suspensions (250 μl total) followed by immediate trichloroacetic acid extractions as described above. Two dimensional thin layer chromatography on poly(ethylene)imine cellulose with an unlabeled ATP carrier is performed according to Bochner and Ames, J. Biol. Chem., 257, pp. 9759-9769, 1982). For the determination of whole blood or isolated RBC [^3 H]ATP pools, 10 μl of a 1 ml initial trichloroacetic acid extract are chromatographed. Determinations of [^3 H]ATP levels in blood plasma or RBCs incubation media are performed on 300 μl of an initial 1 ml trichloroacetic acid extract which are lyophilized and redissolved in 15 μl of water. After chromatography, the spots corresponding to the ATP carrier are cut, eluted with 0.5 ml of 4 N ammonium hydroxide, and radioactivity determined in 10 ml of scintillation fluid.
Single intraperitoneal injections of 2 ml of 35 mM of AMP or ATP in saline at pH 6.2 into CB6F1 mice result in expansions of RBC ATP pools in these mice (see Table 4).
The expansions of RBC ATP pools after i.p. injections of AMP or ATP could be detected 30 minutes after injections and lasted for approximately 6-8 hours after the nucleotides were completely adsorbed across the peritoneal membrane and into the systemic circulation. The rates of adsorption of intraperitoneal AMP or ATP solutions varied in different strains of mice. […] These plasma ATP levels originate in RBCs since they can be metabolically labeled by [^3 H]adenosine. Plasma ATP pools which originate in the dense granules of blood platelets would not be radioactively labeled under the same conditions (e.g., Holmsen, 1985, Seminars in Hematol, 22, 219-240). The experiments described in Tables 4 and 5 include uptake of [^3 H]adenosine by whole blood (Table 4) or isolated washed RBCs (Table 5 below). In both cases, all the extracellular ATP, determined seconds after the uptake of [^3 H]adenosine, is metabolically labeled.

RBC ATP pools [2] = experiment: Stability of expanded RBC ATP pools in washed isolated RBCs in vitro after i.p. injection (Table 5); design: species or system mouse; conditions: average of two experiments; for Medium (Hanks' BSS) [^3 H]ATP levels immediately after [^3 H]adenosine incorporation into isolated, washed RBCs (at time 0) / ATP levels in the medium (Hanks' BSS): time 0; for ATP levels in the medium (Hanks' BSS): bioluminometry; for RBC ATP pools (37° C.), 0 min / RBC ATP pools (37° C.), 120 min: washed RBCs in Hanks' BSS
Procedure: as §1
Two hour incubations of washed isolated RBCs containing normal or expanded ATP pools in Hanks' BSS result in relatively small decreases in RBC ATP pools with the expanded pools being maintained well above normal levels (Table 5). The expansions of RBC ATP pools after i.p. administration of AMP or ATP in vivo is presumably the result of their dephosphorylation followed by the RBCs uptake of the adenosine which is generated in situ.

[3] = Rate of extracellular ATP degradation by mouse blood in vitro (Table 6); format: in vitro ADME; conditions: 1 mM, 37° C.
Procedure: (§2) *Blood (450 μl) was withdrawn into a syringe containing either 50 μ
(§3) of citratedextrose or 50 μl of heparin (100 U/ml). Whole blood was the
(§4) added to 1 mM of [^3 H]ATP in saline (25 μl) and at various time
(§5) points blood aliquots (90 μl) were removed and centrifuged. Plasma (20
(§6) μl) was withdrawn and added to 1 ml of icecold trichloroacetic acid.
(§7) Thin layer chromatography on poly(ethylene)imine cellulose was performed
(§8) according to published procedures. The rate of degradation of 1 mM of
(§9) [^3 H]ATP was linear for mouse or human blood during the initial 30
(§10) minute incubation at 37° C.

[4] = Rate of extracellular ATP degradation by human blood in vitro (Table 6); format: in vitro ADME; conditions: 1 mM, 37° C.
Procedure: as §2, §3, §4, §5, §6, §7, §8, §9, §10

human subjects = conditions: slow injections or infusions of the same dose (40 mg); cited from earlier work

Structure (SMILES) | Plasma ATP levels (RBC ATP pools [1]) [µM] | RBC ATP pools (RBC ATP pools [1]) [mM] | Plasma [^3 ]ATP levels immediately after [^3 H]adenosine incorporation into whole blood (RBC ATP pools [1]) [µM] | Duration of expansion of RBC ATP pools (RBC ATP pools [1]) [h] | Time at which expansion of RBC ATP pools could be detected (RBC ATP pools [1]) [min] | Increase in plasma (extracellular) ATP levels (in words) (RBC ATP pools [1]) | Expansion of RBC ATP pools (in words) (RBC ATP pools [1]) | Medium (Hanks' BSS) [^3 H]ATP levels immediately after [^3 H]adenosine incorporation into isolated, washed RBCs (at time 0) (RBC ATP pools [2]) [µM] | ATP levels in the medium (Hanks' BSS) (RBC ATP pools [2]) [µM] | RBC ATP pools (37° C.), 0 min (RBC ATP pools [2]) [mM] | RBC ATP pools (37° C.), 120 min (RBC ATP pools [2]) [mM] | Rate of extracellular ATP degradation ([3]; citrate) [pmol/µL/min] | Rate of extracellular ATP degradation ([3]; heparin) [pmol/µL/min] | Rate of extracellular ATP degradation ([4]; citrate) [pmol/µL/min] | Rate of extracellular ATP degradation ([4]; heparin) [pmol/µL/min] | Response to slow injection or infusion in human subjects (human subjects)
Nc1ncnc2c1ncn2[C@@H]1O[C@H](COP(=O)(O)O)[C@@H](O)[C@H]1O [AMP, adenosine 5'-monophosphate] | 3.10 ± 0.96 | 1.78 ± 0.32 | 2.86 ± 1.06 | 6 to 8 | 30 | markedly increased; also recorded: several fold increases in plasma (extracellular) ATP levels | yielded expansions of red blood cell (RBC) ATP pools | 1.81 | 2.42 | 1.01 | 0.86 | – | – | – | – | –
Nc1ncnc2c1ncn2[C@@H]1O[C@H](COP(=O)(O)OP(=O)(O)OP(=O)(O)O)[C@@H](O)[C@H]1O [ATP, adenosine 5'-triphosphate] | 4.94 ± 1.17 | 2.49 ± 0.42 | 5.75 ± 2.05 | 6 to 8 | 30 | markedly increased; also recorded: several fold increases in plasma (extracellular) ATP levels | yielded expansions of red blood cell (RBC) ATP pools | 4.93 | 4.08 | 2.52 | 1.76 | 6.87 | 10.21 | 1.75 | 4.07 | much lesser or no response at all
